Results as given in US9982005B2, “Macrolides and methods of their preparation and use” (President and Fellows of Harvard College, priority 2013, dated 2018).
Converted amounts (≈) assume the structure as drawn. Where two headings read alike, the source gives them in different places.

Legend:
Assay type in all cases: cell-based
[1] = test system: SA183 S. aureus ermA positive msrA unknown; assay: broth dilution MIC, S. aureus SA183; settings: Staphylococcus aureus
Description: (§1) We have collected MIC data for a total of 50 novel macrolides that this platform has produced against over 21 unique strains of B. subtilis, E. coli, S. aureus, S. pneumoniae, and H. influenzae, including several multidrug-resistant strains, with a special focus on macrolide resistant mechanisms (vide supra). Azithromycin was included as a control macrolide. CLSI standard procedures for broth dilution MIC determination were used. […] These genotypes can be constitutive or inducible. The finding that C4-epi (unnatural) isomers of the “azaketolide” macrolide class have enhanced activities relative to C4 natural isomers is very exciting.

[2] = test system: Spn1537 S. pneumoniae ermB positive mefA positive; assay: broth dilution MIC, S. pneumoniae Spn1537; settings: Streptococcus pneumoniae
Description: as §1

[3] = test system: Spn1509 S. pneumoniae ermB positive mefA negative; assay: broth dilution MIC, S. pneumoniae Spn1509; settings: Streptococcus pneumoniae; Spn1509 S. pneumoniae ermB positive mefA negative; read-out: MIC
Description: as §1

[4] = test system: SA557 S. aureus ermA unknown msrA positive; assay: broth dilution MIC, S. aureus SA557; settings: Staphylococcus aureus; SA557 S. aureus ermA unknown msrA positive; read-out: MIC
Description: as §1

[5] = test system: SA101 S. aureus ATCC29213; assay: broth dilution MIC, S. aureus SA101; settings: Staphylococcus aureus, ATCC29213, SA101 S. aureus ATCC29213; read-out: MIC
How it was run: (§2)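 MICs were determined by broth dilution following CLSI standard procedures. Azithromycin served as the control macrolide.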

[6] = test system: HI281 H. influenzae; assay: broth dilution MIC, H. influenzae HI281; settings: Haemophilus influenzae
Description: as §1

[7] = test system: Spn1533 S. pneumoniae ermB positive mefA positive; assay: broth dilution MIC, S. pneumoniae Spn1533; settings: Streptococcus pneumoniae
Description: as §1

[8] = test system: SA418 S. aureus ermA negative msrA positive; assay: broth dilution MIC, S. aureus SA418; settings: Staphylococcus aureus
Description: as §1

[9] = test system: SA1708 S. aureus ermA positive msrA negative; assay: broth dilution MIC, S. aureus SA1708; settings: Staphylococcus aureus
Description: as §1

[10] = test system: SA506 S. aureus ermA positive msrA unknown; assay: broth dilution MIC, S. aureus SA506; settings: Staphylococcus aureus
Description: as §1

[11] = test system: Spn1427 S. pneumoniae ermB positive mefA negative; assay: broth dilution MIC, S. pneumoniae Spn1427; settings: Streptococcus pneumoniae
Description: as §1

[12] = test system: Spn160 S. pneumoniae ermB unknown mefA positive; assay: broth dilution MIC, S. pneumoniae Spn160; settings: Streptococcus pneumoniae; Spn160 S. pneumoniae ermB unknown mefA positive; read-out: MIC
Description: as §1

[13] = test system: HI175 H. influenzae ATCC49247; assay: broth dilution MIC, H. influenzae HI175; settings: Haemophilus influenzae
Description: as §1

[14] = test system: SA1707 S. aureus ermA negative msrA positive; assay: broth dilution MIC, S. aureus SA1707; settings: Staphylococcus aureus
Description: as §1

[15] = test system: Spn 106 S. pneumonia ATCC49619; assay: broth dilution MIC, S. pneumoniae Spn 106; settings: Streptococcus pneumoniae
Description: as §1

[16] = test system: K. pneumoniae strains; assay: MIC against K. pneumoniae strains (Table M8); settings: Klebsiella pneumoniae, K. pneumoniae 10031
[17] = test system: A. baumannii strains; assay: MIC against A. baumannii strains (Table M8); settings: Acinetobacter baumannii, BAA747, A. baumannii BAA747-1
[18] = test system: S. aureus strains; assay: MIC against S. aureus strains (Table M7); settings: for MIC: Staphylococcus aureus
How it was run: as §2

[19] = test system: S. pneumoniae strains; assay: MIC against S. pneumoniae strains (Tables M7, M8); settings: for MIC: Streptococcus pneumoniae
Description: CLSI standard procedures for broth dilution MIC determination were used. […] These genotypes can be constitutive or inducible.

[20] = test system: E. coli strains; assay: MIC against E. coli strains (Table M7); settings: Escherichia coli, ATCC25922, E. coli ATCC 25922
How it was run: as §2

[21] = test system: H. influenzae strains; assay: MIC against H. influenzae strains (Table M8); settings: Haemophilus influenzae
How it was run: as §2

[22] = test system: E. faecalis strains; assay: MIC against E. faecalis strains (Table M8); settings: Enterococcus faecalis, E. faecalis 29212
[23] = Spn 106 S. pneumonia ATCC49619, read-out: MIC
[24] = ATCC29213, S. aureus ATCC 29213, read-out: MIC S. aureus (ATCC 29213)
[25] = S. aureus 506, read-out: MIC S. aureus (506)
[26] = S. aureus 1708, read-out: MIC S. aureus (1708)
[27] = USA300, S. aureus USA300, read-out: MIC S. aureus (USA300)
[28] = S. pneumoniae 160, read-out: MIC S. pneumonae (160)
[29] = S. pneumoniae 1509, read-out: MIC S. pneumoniae (1509)
[30] = S. pneumoniae 1533, read-out: MIC S. pneumoniae (1533)
[31] = S. pneumoniae 1537, read-out: MIC S. pneumoniae (1537)
[32] = S. pneumoniae 49619, read-out: MIC S. pneumoniae (49619)
[33] = H. influenzae 49247, read-out: MIC H. influenzae (49247)
[34] = H. influenzae 49766, read-out: MIC H. influenzae (49766)

Compound	MIC [1] [µg/mL]	MIC [2] [µg/mL]	MIC [3] [µg/mL]	MIC [4] [µg/mL]	MIC [5] [µg/mL]	MIC [6] [µg/mL]	MIC [7] [µg/mL]	MIC [8] [µg/mL]	MIC [9] [µg/mL]	MIC [10] [µg/mL]	MIC [11] [µg/mL]	MIC [12] [µg/mL]	MIC [13] [µg/mL]	MIC [14] [µg/mL]	MIC [15, 23] [µg/mL]	MIC [16] [µg/mL]	MIC [17] [µg/mL]	MIC [18, 24] [µg/mL]	MIC [18, 25] [µg/mL]	MIC [18, 26] [µg/mL]	also measured
CC[C@H]1OC(=O)[C@H](C)C(=O)C[C@@H](O[C@@H]2OC(C)CC(N(C)C)C2O)[C@](C)(OC)C[C@@H](C)C(=O)N[C@H](C)[C@H]2N(CCCCn3cc(-c4ccccn4)nn3)C(=O)O[C@]12C (stereo partly drawn) [FSM-20739]	> 32	> 32	> 32	> 32	> 32	32 (≈ 39.3 µM)	> 32	> 32	> 32	> 32	> 32	> 32	> 32	> 32	32 (≈ 39.3 µM)						
CC[C@H]1OC(=O)C(C)C(=O)[C@@H](C)[C@@H](O[C@@H]2OC(C)CC(N(C)C)C2O)[C@](C)(OC)C[C@@H](C)CN[C@H](C)[C@H]2N(CCCCn3cc(-c4cccc(N)c4)nn3)C(=O)O[C@]12C (stereo partly drawn) [FSM-20789]	> 32	> 32	1 (≈ 1.21 µM)	2 (≈ 2.42 µM)	2 (≈ 2.42 µM)	8 (≈ 9.66 µM)	> 32	4 (≈ 4.83 µM)	2 (≈ 2.42 µM)	> 32	8 (≈ 9.66 µM)	0.25 (≈ 0.302 µM)	4 (≈ 4.83 µM)	4 (≈ 4.83 µM)		4 (≈ 4.83 µM)	32 (≈ 38.6 µM)	2 (≈ 2.42 µM)	> 32	2 (≈ 2.42 µM)	MIC [18, 27]: 4 µg/mL (≈ 4.83 µM); MIC [19, 28]: 0.5 µg/mL (≈ 0.604 µM); MIC [19, 29]: 4 µg/mL (≈ 4.83 µM); MIC [19, 30]: > 32 µg/mL; MIC [19, 31]: > 32 µg/mL; MIC [19, 32]: 0.125 µg/mL (≈ 0.151 µM); MIC [20]: 16 µg/mL (≈ 19.3 µM); MIC ([15]; ATCC49619): 0.0625 µg/mL (≈ 0.0755 µM); MIC [21, 33]: 2 µg/mL (≈ 2.42 µM); MIC [21, 34]: 8 µg/mL (≈ 9.66 µM); MIC [22]: 0.5 µg/mL (≈ 0.604 µM)
CC[C@H]1OC(=O)C(C)(F)C(=O)[C@H](C)[C@@H](O[C@@H]2OC(C)CC(N(C)C)C2O)[C@](C)(OC)C[C@@H](C)CN[C@H](C)[C@H]2N(CCCCn3cc(-c4cccc(N)c4)nn3)C(=O)O[C@]12C (stereo partly drawn) [FSM-20795]	> 32	32 (≈ 37.8 µM)	0.125 to 0.25 (≈ 0.148 to 0.295 µM)	0.25 to 0.5 (≈ 0.295 to 0.591 µM)	0.25 to 0.5 (≈ 0.295 to 0.591 µM)	4 to 8 (≈ 4.73 to 9.46 µM)	16 (≈ 18.9 µM)	0.5 to 1 (≈ 0.591 to 1.18 µM)	0.5 (≈ 0.591 µM)	> 32	1 to 2 (≈ 1.18 to 2.36 µM)	0.0312 (≈ 0.0369 µM)	1 to 2 (≈ 1.18 to 2.36 µM)	0.5 to 1 (≈ 0.591 to 1.18 µM)	≤ 0.0156	2 (≈ 2.36 µM)	16 (≈ 18.9 µM)	0.5 (≈ 0.591 µM)	> 32	0.25 (≈ 0.295 µM)	MIC S. aureus (1708) ([18]; S. aureus 1708): 0.5 µg/mL (≈ 0.591 µM); MIC ([18]; S. aureus 183, read-out: MIC S. aureus (183)): > 32 µg/mL; MIC [18, 27]: 1 µg/mL (≈ 1.18 µM); MIC S. pneumoniae (1509) ([19]; S. pneumoniae 1509): 1 µg/mL (≈ 1.18 µM); MIC [19, 28]: ≤ 0.0625 µg/mL; MIC [19, 29]: 0.5 µg/mL (≈ 0.591 µM); MIC [19, 30]: > 32 µg/mL; MIC [19, 31]: > 32 µg/mL; MIC [19, 32]: ≤ 0.0625 µg/mL; MIC [20]: 4 µg/mL (≈ 4.73 µM); MIC [21, 33]: 0.5 µg/mL (≈ 0.591 µM); MIC [21, 34]: 4 µg/mL (≈ 4.73 µM); MIC [22]: 0.125 µg/mL (≈ 0.148 µM)

Continued, in another order:

MIC [1] [µg/mL]	MIC [2] [µg/mL]	MIC [3] [µg/mL]	MIC [4] [µg/mL]	MIC [5] [µg/mL]	MIC [6] [µg/mL]	MIC [7] [µg/mL]	MIC [8] [µg/mL]	MIC [9] [µg/mL]	MIC [10] [µg/mL]	MIC [11] [µg/mL]	MIC [12] [µg/mL]	MIC [13] [µg/mL]	MIC [14] [µg/mL]	MIC [15, 23] [µg/mL]	Compound	MIC [16] [µg/mL]	MIC [17] [µg/mL]	MIC [18, 24] [µg/mL]	MIC [18, 25] [µg/mL]	MIC [18, 26] [µg/mL]	also measured
> 32	> 32	> 32	> 32	> 32	32 (≈ 38.6 µM)	> 32	> 32	> 32	> 32	> 32	> 32	> 32	> 32	8 (≈ 9.66 µM)	CC[C@H]1OC(=O)[C@H](C)C(=O)[C@H](C)[C@@H](O[C@@H]2OC(C)CC(N(C)C)C2O)[C@](C)(OC)C[C@@H](C)C(=O)N[C@H](C)[C@H]2N(CCCCn3cc(-c4ccccn4)nn3)C(=O)O[C@]12C (stereo partly drawn) [FSM-20781]						
> 32	> 32	4 (≈ 4.65 µM)	8 (≈ 9.3 µM)	4 (≈ 4.65 µM)	32 (≈ 37.2 µM)	> 32	4 (≈ 4.65 µM)	8 (≈ 9.3 µM)	> 32	32 (≈ 37.2 µM)	0.125 (≈ 0.145 µM)	8 (≈ 9.3 µM)	8 (≈ 9.3 µM)	≤ 0.0156	CC[C@H]1OC(=O)C(C)(F)C(=O)[C@H](C)[C@@H](O[C@@H]2OC(C)CC(N(C)C)C2O)[C@](C)(OC)C[C@@H](C)CN(C)[C@H](C)[C@H]2N(CCCCn3cc(-c4cccc(N)c4)nn3)C(=O)O[C@]12C (stereo partly drawn) [FSM-20797]	8 (≈ 9.3 µM)	> 32	8 (≈ 9.3 µM)	> 32	8 (≈ 9.3 µM)	MIC [18, 27]: 8 µg/mL (≈ 9.3 µM); MIC [19, 28]: 0.25 µg/mL (≈ 0.291 µM); MIC [19, 29]: 16 µg/mL (≈ 18.6 µM); MIC [19, 30]: > 32 µg/mL; MIC [19, 31]: > 32 µg/mL; MIC [19, 32]: 0.5 µg/mL (≈ 0.581 µM); MIC [20]: 32 µg/mL (≈ 37.2 µM); MIC [21, 33]: 4 µg/mL (≈ 4.65 µM); MIC [21, 34]: 16 µg/mL (≈ 18.6 µM); MIC [22]: 1 µg/mL (≈ 1.16 µM)
